For 22 compounds, half-life, IC50 and inhibition in vivo results are on record in ChEMBL document CHEMBL5537185, “Discovery of the First-in-Class RORγ Covalent Inhibitors for Treatment of Castration-Resistant Prostate Cancer” (J Med Chem, 2024).

Some results are limits rather than exact numbers.

A short description of data set [1]: Metabolic stability in mouse liver microsomes assessed as half life at 0.1 uM preincubated for 10 mins followed by NADPH addition and measured upto 60 mins by LC-MS/MS analysis. As to conditions: time < 70 min. The class given is ADME, Microsome. For orientation: Microsomes from liver hold many membrane-bound enzymes, among them those of drug oxidation.
Data set [2] deals with CWR22R. Kind of data set: Antiproliferative activity against human 22Rv1 cells incubated for 4 days by CCK8 assay. The settings on record: 22Rv1, 96 h. (Tetrazolium assays rely on reduction of a dye to a coloured formazan, in cell work by metabolically active cells.)
In data set [3] the test system is LNCaP C4-2B. Kind of data set: Antiproliferative activity against human LNCaP C4-2B cells incubated for 4 days by CCK8 assay. As to conditions: 96 h.
Data set [4] has as its system LNCaP. As to the kind of experiment: Antiproliferative activity against human LNCaP cells incubated for 4 days by CCK8 assay. The settings on record: 96 h.
Data set [5] addresses T1, Nuclear receptor ROR-gamma (Homo sapiens, UniProt P51449).
T1 sequence (P51449 whole entry): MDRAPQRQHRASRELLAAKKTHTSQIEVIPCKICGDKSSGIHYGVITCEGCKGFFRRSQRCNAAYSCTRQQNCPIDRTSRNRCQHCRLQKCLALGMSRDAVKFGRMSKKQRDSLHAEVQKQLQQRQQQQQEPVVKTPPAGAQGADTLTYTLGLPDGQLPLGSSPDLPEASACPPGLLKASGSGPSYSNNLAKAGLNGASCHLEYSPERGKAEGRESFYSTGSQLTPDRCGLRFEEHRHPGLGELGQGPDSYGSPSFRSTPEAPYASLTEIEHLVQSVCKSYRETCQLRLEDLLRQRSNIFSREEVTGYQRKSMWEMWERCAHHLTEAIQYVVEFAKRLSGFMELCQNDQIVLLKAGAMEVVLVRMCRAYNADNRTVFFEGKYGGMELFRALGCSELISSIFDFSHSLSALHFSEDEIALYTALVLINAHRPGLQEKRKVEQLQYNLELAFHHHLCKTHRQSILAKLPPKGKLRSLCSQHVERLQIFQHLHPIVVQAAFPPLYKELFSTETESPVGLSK
As to the kind of experiment: Inhibition of Gal4-fused RORgamma LBD (unknown origin) expressed in HEK293T cells incubated for 48 hrs by luciferase based assay. Type of data set: cell-based.

The subject of data set [6] is CWR22R. Kind of data set: Antitumor activity against human 22Rv1 cells xenografted in NOD/SCID mouse assessed as tumor growth inhibition at 5 mg/kg, ip administered five times a week for 2 weeks and measured two times per week. The class given is functional. As to conditions: 22Rv1, 336 h, read-out: TGI. Background: Xenograft models place foreign cells or tissue in a host animal.

On to `C=CC(=O)Nc1ccccc1-c1ccc(NC(=O)Cc2ccc(S(=O)(=O)CC)cc2)cc1C`, for which, in data set [1], the half-life (usually the time needed for the level to fall by half in the phase considered) at 0.1 µM was found to be 10 min. For the same compound, the IC50 (commonly the point on the concentration scale where inhibition reaches its midpoint) in data set [2] turned out to be 2250 nM; in data set [3], 990 nM; in data set [4], 920 nM.

On to `C=CC(=O)Nc1ccccc1-c1ccc(NC(=O)c2ccc(OC)nc2)cc1C`, for which the midpoint of inhibition in data set [5], the IC50, lay at 4640 nM.

In the case of `C=CC(=O)Nc1ccccc1-c1ccc(NC(=O)c2ccc(S(C)(=O)=O)cn2)cc1C`, in data set [5], the half-maximal inhibitory concentration (IC50) was determined as 5440 nM.

Regarding `C=CC(=O)Nc1ccccc1-c1ccc(NC(=O)Cc2ccc(S(=O)(=O)CC)cc2)cc1C(F)(F)F`, the IC50 amounted to 2560 nM in data set [2], 2170 nM in data set [5], 1100 nM in data set [3] and 1770 nM in data set [4].

For `C=CC(=O)Nc1ccccc1-c1ccc(NC(=O)Cc2ccc(C#N)cc2)cc1C`, in data set [5], 2320 nM corresponded to half-maximal inhibition (IC50).

With `C=CC(=O)Nc1ccccc1-c1ccc(NC(=O)Cc2ccc(S(=O)(=O)CC)cc2)cc1`, the IC50 in data set [5] was found to be 4080 nM.

The compound `CCS(=O)(=O)c1ccc(CC(=O)Nc2ccc(-c3ccccc3NC(=O)CCl)c(C)c2)cc1` displayed an IC50 in data set [5] of 2000 nM.

On to `CCC(=O)Nc1ccccc1-c1ccc(NC(=O)Cc2ccc(S(=O)(=O)CC)cc2)cc1Cl`, for which the IC50 in data set [2], in data set [3] and in data set [4] was greater than 10000 nM each time.

Turning to `C=CC(=O)Nc1ccccc1-c1c(Cl)cc(NC(=O)Cc2ccc(S(=O)(=O)CC)cc2)cc1Cl`, in data set [1], the half-life at 0.1 µM is 2.07 min. Further, the half-maximal inhibitory concentration (IC50) worked out at 920 nM in data set [2], 50 nM in data set [5], 290 nM in data set [3] and 700 nM in data set [4].

Compound `C=CC(=O)Nc1ccccc1-c1ccc(NC(=O)c2cnc(C)nc2)cc1C` came in with a concentration for half-maximal inhibition (IC50) in data set [5] of 2580 nM.

For `C=CC(=O)Nc1ccccc1-c1ccc(NC(=O)c2ccc(S(C)(=O)=O)cc2)cc1C`, the IC50 in data set [5] stood at 5710 nM.

As to `C/C=C/C(=O)Nc1ccccc1-c1ccc(NC(=O)Cc2ccc(S(=O)(=O)CC)cc2)cc1C`, half-maximal inhibition in data set [5] (IC50) was put at 1630 nM. This IC50 is about 3.5-fold lower than that of the compound before.

`C=CC(=O)Nc1ccccc1-c1ccc(NC(=O)Cc2ccc(S(C)(=O)=O)cc2)cc1C` had an IC50 in data set [5] of 1230 nM. This IC50 and that of the compound before are within 1.5-fold of each other.

Turning to `C=CC(=O)Nc1ccccc1-c1ccc(NC(=O)Cc2ccc(S(=O)(=O)CC)cc2)cc1F`, the half-life at 0.1 µM in data set [1] stood at 8.17 min. The IC50 in data set [2] came to 1440 nM; in data set [5], 1100 nM; in data set [3], 730 nM; in data set [4], 530 nM.

`C=CC(=O)Nc1ccccc1-c1ccc(NC(=O)Cc2cccc(C#N)c2)cc1C` gave a 50% inhibitory concentration (IC50) in data set [5] of 2020 nM.

With `C=CC(=O)Nc1ccccc1-c1ccc(NC(=O)Cc2ccc(S(=O)(=O)CC)cc2)cn1`, the IC50 in data set [5] worked out at 6190 nM.

In turn, `C=CC(=O)Nc1ccccc1-c1ccc(NC(=O)c2cccc(C#N)c2)cc1C` gave a half-maximal inhibitory concentration (IC50) in data set [5] greater than 20000 nM.

For the compound `C=CC(=O)Nc1ccccc1-c1ccc(NS(=O)(=O)Cc2ccc([N+](=O)[O-])cc2)cc1C`, the concentration for half-maximal inhibition (IC50) in data set [5] came out at 6610 nM.

As for `CCS(=O)(=O)c1ccc(CC(=O)Nc2cc(Cl)c(-c3ccccc3OC(F)(F)F)c(Cl)c2)cc1`, the inhibition in vivo at 5 mg/kg in data set [6] came out at 31.1%.

In data set [5], `C=C(C)C(=O)Nc1ccccc1-c1ccc(NC(=O)Cc2ccc(S(=O)(=O)CC)cc2)cc1C` yielded a concentration for half-maximal inhibition (IC50) of 1120 nM. This counts as single-digit micromolar.

On to `CCC(=O)Nc1ccccc1-c1ccc(NC(=O)Cc2ccc(S(=O)(=O)CC)cc2)cc1C`, for which, in data set [5], the IC50 is 2980 nM.

The compound `C=CC(=O)Nc1ccccc1-c1ccc(NC(=O)Cc2ccccc2[N+](=O)[O-])cc1C` yielded an IC50 in data set [5] of 3040 nM.
